Measurements taken from article PMC4634704 (Bioorganic & medicinal chemistry letters, 2015).
Like-named read-outs stand apart in the source and are kept apart here.

Columns and labels:
mGlu1-4,6-8 = assay: mGlu family selectivity; type: cell-based; settings: selectivity versus other mGlu family members
Rat IV cassette PK = settings: male, Sprague-Dawley, in vivo, 0.2 mg/kg
[1] = Stability in vehicle formulation; type: physicochemical; settings: 20% β-CD pH 6, 4 mg/mL, up to five days
mGlu5 [2] = target: mGlu5 (Rattus norvegicus, UniProt P31424); assay: Allosteric agonism in rat astrocytes; type: cell-based; settings: mGlu5 endogenously expressed
mGlu5 (Rattus norvegicus, UniProt P31424), sequence (P31424 21-1203): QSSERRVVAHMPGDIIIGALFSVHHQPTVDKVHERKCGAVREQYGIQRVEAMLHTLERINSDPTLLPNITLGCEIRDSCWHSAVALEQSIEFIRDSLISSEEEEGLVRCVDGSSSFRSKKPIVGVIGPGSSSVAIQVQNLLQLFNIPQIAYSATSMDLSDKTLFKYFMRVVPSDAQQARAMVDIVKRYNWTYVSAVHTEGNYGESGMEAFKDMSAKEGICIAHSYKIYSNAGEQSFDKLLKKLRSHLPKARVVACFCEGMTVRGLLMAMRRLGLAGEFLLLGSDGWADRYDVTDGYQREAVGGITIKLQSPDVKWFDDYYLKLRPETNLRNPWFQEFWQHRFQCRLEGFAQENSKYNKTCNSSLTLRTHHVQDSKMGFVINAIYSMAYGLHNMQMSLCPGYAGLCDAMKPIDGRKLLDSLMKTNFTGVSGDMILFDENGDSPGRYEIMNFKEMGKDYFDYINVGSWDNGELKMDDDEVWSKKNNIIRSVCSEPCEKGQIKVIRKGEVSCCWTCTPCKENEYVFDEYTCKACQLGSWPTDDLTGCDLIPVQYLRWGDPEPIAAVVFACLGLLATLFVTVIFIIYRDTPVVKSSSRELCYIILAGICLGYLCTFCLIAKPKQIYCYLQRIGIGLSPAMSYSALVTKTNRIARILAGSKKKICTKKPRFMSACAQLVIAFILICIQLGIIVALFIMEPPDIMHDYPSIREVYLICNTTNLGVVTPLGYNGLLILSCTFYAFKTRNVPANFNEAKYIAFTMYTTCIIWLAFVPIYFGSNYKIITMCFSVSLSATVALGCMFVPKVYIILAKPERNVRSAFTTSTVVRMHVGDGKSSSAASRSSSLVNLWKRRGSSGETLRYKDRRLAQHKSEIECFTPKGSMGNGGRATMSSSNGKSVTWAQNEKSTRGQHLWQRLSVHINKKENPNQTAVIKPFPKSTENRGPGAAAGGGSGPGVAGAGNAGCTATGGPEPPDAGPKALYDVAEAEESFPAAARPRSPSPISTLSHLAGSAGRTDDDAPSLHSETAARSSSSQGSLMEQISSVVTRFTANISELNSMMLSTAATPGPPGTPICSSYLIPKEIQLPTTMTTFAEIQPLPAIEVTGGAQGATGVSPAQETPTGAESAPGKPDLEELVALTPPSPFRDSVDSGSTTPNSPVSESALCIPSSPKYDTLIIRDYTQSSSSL

[3] = Simulated gastric fluid solubility and stability; settings: 1 h, 37 °C
[4] = Hepatic microsomal intrinsic clearance, human; settings: predicted hepatic clearance
[5] = Hepatic microsomal intrinsic clearance, rat; settings: predicted hepatic clearance
[6] = Rat modified Irwin study / acute CNS behavioural observation
mGlu5 [7] = target: mGlu5 (Homo sapiens, UniProt P41594); assay: Allosteric agonism in cell lines over expressing mGlu5; type: cell-based
mGlu5 (Homo sapiens, UniProt P41594), sequence (P41594 21-1212): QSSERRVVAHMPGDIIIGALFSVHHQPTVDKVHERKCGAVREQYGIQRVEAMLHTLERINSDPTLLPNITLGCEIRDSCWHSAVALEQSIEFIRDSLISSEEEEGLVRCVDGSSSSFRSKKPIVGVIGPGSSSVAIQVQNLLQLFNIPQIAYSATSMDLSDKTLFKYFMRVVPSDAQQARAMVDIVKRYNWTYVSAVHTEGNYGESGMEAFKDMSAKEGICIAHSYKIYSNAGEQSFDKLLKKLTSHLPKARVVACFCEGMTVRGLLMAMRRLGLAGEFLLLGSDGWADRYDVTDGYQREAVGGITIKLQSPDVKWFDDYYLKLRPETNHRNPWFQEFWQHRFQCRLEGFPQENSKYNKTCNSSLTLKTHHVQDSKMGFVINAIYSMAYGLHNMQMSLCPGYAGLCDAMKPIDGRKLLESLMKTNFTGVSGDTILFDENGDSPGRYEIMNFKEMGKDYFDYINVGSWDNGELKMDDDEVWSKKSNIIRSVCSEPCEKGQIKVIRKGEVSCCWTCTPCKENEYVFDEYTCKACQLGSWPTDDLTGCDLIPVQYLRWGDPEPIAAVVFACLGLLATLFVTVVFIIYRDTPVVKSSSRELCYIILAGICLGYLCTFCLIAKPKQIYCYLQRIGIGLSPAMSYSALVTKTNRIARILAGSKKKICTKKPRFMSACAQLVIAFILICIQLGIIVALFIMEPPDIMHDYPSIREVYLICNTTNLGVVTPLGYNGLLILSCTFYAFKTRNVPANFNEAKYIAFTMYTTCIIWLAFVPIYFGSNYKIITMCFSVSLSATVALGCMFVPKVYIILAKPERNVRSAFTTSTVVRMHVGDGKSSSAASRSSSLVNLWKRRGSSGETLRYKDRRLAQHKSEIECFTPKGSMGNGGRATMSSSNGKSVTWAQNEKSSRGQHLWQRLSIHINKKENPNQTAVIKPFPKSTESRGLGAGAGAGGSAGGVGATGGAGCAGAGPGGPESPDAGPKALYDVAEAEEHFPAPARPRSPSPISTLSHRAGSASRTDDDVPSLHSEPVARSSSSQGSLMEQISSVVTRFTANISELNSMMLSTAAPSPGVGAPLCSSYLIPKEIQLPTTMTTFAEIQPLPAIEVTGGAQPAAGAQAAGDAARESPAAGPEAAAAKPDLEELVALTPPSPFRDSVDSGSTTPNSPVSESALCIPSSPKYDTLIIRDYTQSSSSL

[8] = system: 68 distinct GPCRs, ion channels and transporters; assay: Broad panel ancillary screen; type: binding; settings: 68 targets, Eurofins Inc.
major CYP450 enzymes = assay: CYP450 inhibition
[9] = Terminal brain and plasma levels from AHL studies
Rat plasma stability = settings: 4 h incubation; 37 °C
[10] = rat, cited from earlier work
[11] = 30 days, 360 mg/kg/day, IND-enabling

Structure (SMILES): CC(=O)N1CCCn2nc(COc3ccccc3)cc21 [9a, 1-(2-(phenoxymethyl)-6,7-dihydropyrazolo[1,5-a]pyrimidin-4(5H)-yl)ethanone]
- FS at mGlu1-4,6-8 (mGlu1-4,6-8): < 1.2
- clearance (Rat IV cassette PK): > 70 mL/min/kg
- decomposition in vehicle formulation [1]: < 5%
- allosteric agonism (mGlu5 [2]): no allosteric agonism was detected
- decomposition in simulated gastric fluid [3]: < 5%
- bioavailability (Discrete dog PK): low bioavailability
- clearance (Discrete dog PK): moderate to high
- exposure (Discrete dog PK; IV and oral): poor exposure
- CLhep (h) [4]: > 12 mL/min/kg
- CLhep (r) [5]: > 35 mL/min/kg
- clearance (Discrete rat PK): moderate to high
- brain concentration ([6]; 56.6 mg/kg, rat): 113 µM
- safety window ([6]; modified Irwin concentrations versus AHL MED): ≥ 100 fold
- behaviour across 30 autonomic and somatomotor endpoints ([6]; modified Irwin, 30 mg/kg PO, rat): no observable alterations in behavior
- concentration at 1 h ([6]; rat, in vivo, 30 mg/kg, est. Cb,u, 30 mg/kg PO, 1.0 h post-dose): 36 µM
- allosteric agonism (mGlu5 [7]): no allosteric agonism was detected
- activity in broad panel ancillary screen [8]: no noted activity
- IC50 (major CYP450 enzymes): > 30 µM
- terminal estimated unbound brain concentration ([9]; AHL 3 mg/kg PO, rat): 199 nM
- rat plasma stability (Rat plasma stability): stable

Structure (SMILES): CC(=O)N1CCCn2nc(COc3ccccc3F)cc21 [12a]
- clearance (Rat IV cassette PK): > 70 mL/min/kg
- terminal brain concentration ([9]; AHL 10 mg/kg PO, T90, rat): not detected
- rat plasma stability (Rat plasma stability): stable

Structure (SMILES): CC(=O)N1CCCn2nc(COc3cccc(F)c3)cc21 [12b]
- CLhep (h) [4]: > 12 mL/min/kg
- CLhep (r) [5]: > 35 mL/min/kg

Structure (SMILES): O=C(c1ccc(F)cc1)N1CCc2nc(COc3ccccc3)oc2C1 [compound 1]
- neurotoxicity ([10]; 14 day oral dose-limiting study, 450 mg/kg/day): no neurotoxicity was observed
- exposure ([10]; 14 day, 450 mg/kg/day): 273-440 μM-h
- Fluoro-Jade C staining [10, 11]: induced Fluoro-Jade C staining in a small number of rats
- exposure [10, 11]: 253-416 μM-h
